For data set [1], the system named is HBV (HepG2.117 cell line, inducibly HBV producing). Briefly: Anti-HBV activity, intracellular HBV DNA by real-time PCR in HepG2.117 cell line. It counts as cell-based, hepatitis B virus. The following applies: HepG2.117 cells, 3 days of treatment. The gist of the method:
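Read-out is intracellular HBV DNA, measured by real-time PCR using HBV-specific primers and probe. Cells were stable, inducible HBV-producing HepG2.117 (Tet-off). Serially diluted compound was applied for 3 days after replication was induced.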
In general terms: In qPCR the cycle at which signal appears reflects the starting amount.

The subject of another data set is HepG2 or HepG2.117 cells. Briefly: Cytotoxicity, ATPlite Luminescence Assay. It counts as cell-based, human. Conditions: 3-days incubation unless marked with *. The gist of the method:
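Luminescent ATP quantitation served as the viability endpoint following a 3- or 4-day incubation with test compounds.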
In general terms: Cellular ATP, detected with luciferase, serves as a proxy for viable cell number.

Data set [2] in a line: Human liver microsome stability. It counts as in vitro ADME. Conditions: 1 μM compound, NADPH 1 mM, 37° C., 0-60 min; for HLM Metabolism t1/2: pooled human liver microsomes 0.5 mg/mL. The gist of the method:
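Single incubations with human liver microsomes started with 1 mM NADPH; samples taken at 0, 5, 10, 20, 40 and 60 min, quenched in acetonitrile (1:3). Cassette LC-MS analysis with internal standard; t½ derived from slope of ln peak-area ratio versus time (k = −gradient).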
A general note: Liver microsomes are vesicles of endoplasmic reticulum, rich in cytochrome P450 enzymes.

Each structure is given as a SMILES string.

A word on the EC50: it is the concentration giving half of the maximal effect. As a reminder, the CC50 is the concentration at which the toxic effect on the cells reaches its halfway point. Low values mean harm at low concentration, high ones better tolerance by the cells. For `CC(c1cnc(C2CC2)cn1)N1C[C@@H](C)n2nc3c(c2C1=O)CN(C(=O)c1ccc(Cl)c(Cl)c1)[C@H](C)C3` (single isomer, unassigned) [Compound 3A, (3R,7R)-9-((R*)-1-(5-cyclopropylpyrazin-2-yl)ethyl)-2-(3,4-dichlorobenzoyl)-3,7-dimethyl-1,2,3,4,8,9-hexahydropyrido[4′,3′:3,4]pyrazolo[1,5-a]pyrazin-10(7H)-one], the EC50 in data set [1] was determined as 0.068 µM. In the data set with HepG2 or HepG2.117 cells, this compound displayed a cytotoxic concentration (CC50) of 33.7 µM. In addition, in data set [2] (human, pooled human liver microsomes, pH 7.4, pooled human liver microsomes 0.5 mg/mL, read-out: HLM Metabolism t1/2), the half-life at 1 μM is over 3 h.
With `CC(c1cnc(N2CCOC[C@@H]2C)nc1)N1C[C@@H](C)n2nc3c(c2C1=O)CN(C(=O)c1ccc(Cl)c(C(F)(F)F)c1)[C@H](C)C3` (single isomer, unassigned) [Compound 38B, (3R,7R)-2-(4-chloro-3-(trifluoromethyl)benzoyl)-3,7-dimethyl-9-((S*)-1-(2-((S)-3-methylmorpholino)pyrimidin-5-yl)ethyl)-1,2,3,4,8,9-hexahydropyrido[4′,3′:3,4]pyrazolo[1,5-a]pyrazin-10(7H)-one], the response in data set [1] was half-maximal at 0.012 µM (EC50). For the same compound, half-maximal cytotoxicity in the data set on HepG2 or HepG2.117 cells (CC50) was put at 28.4 µM. Besides, in data set [2], the “HLM Metabolism t1/2” value came out at 0.642 h.
In turn, `CC(c1ccc(-n2cncn2)cc1)N1C[C@@H](C)n2nc3c(c2C1=O)CN(C(=O)c1ccc(Cl)c(C#N)c1)[C@H](C)C3` (single isomer, unassigned) [Compound 11B, 5-((3R,7R)-9-((S*)-1-(4-(1H-1,2,4-triazol-1-yl)phenyl)ethyl)-3,7-dimethyl-10-oxo-1,2,3,4,7,8,9,10-octahydropyrido[4′,3′:3,4]pyrazolo[1,5-a]pyrazine-2-carbonyl)-2-chlorobenzonitrile] came in with an EC50 in data set [1] of 0.032 µM. In the data set on HepG2 or HepG2.117 cells, this compound showed a half-maximal cytotoxic concentration (CC50) of over 50 µM. The “HLM Metabolism t1/2” value in data set [2] was over 3 h.

The values are drawn from patent US20240287070A1, “FUSED HETEROCYCLIC DERIVATIVES” (Janssen Sciences Ireland Unlimited Company, priority 2021, published 2024).
